{"source": "patent US11248022B2", "about": "“Glypican-3 peptide reagents and methods” (THE REGENTS OF THE UNIVERSITY OF MICHIGAN, priority 2017, dated 2022)", "key": {"Hep3B xenograft tumors": {"tested_on": "Hep3B xenograft tumors", "test": "Ex vivo confocal validation on Hep3B xenograft sections and normal liver", "parameters": "species or system mice", "excerpt": "The specimens were also sectioned for collection of confocal images to perform microscopic validation of peptide binding ex vivo."}, "SK-Hep1 cells": {"tested_on": "SK-Hep1 cells", "test": "Confocal microscopy of peptide binding to SK-Hep1 cells", "format": "cell-based, human", "description": "FIGS. 6-2A-Q show validation of specific peptide binding to cells in vitro. […] The Hep3B versus SK-Hep1 difference was also larger for antibody than QLE (P=2.3×10^−8, 6.0-fold larger). Intensity was measured with 6 replicates per condition and fitted to an ANOVA model with terms for 9 means to log-transformed data. […] We further validated specific peptide binding to GPC3 using siRNA knockdown. […] Q) Quantified fluorescence intensities. The siCL vs siGPC3 difference was 7.4 times bigger for ALL than the same difference for QLE (P=7.8×10^−5), and the difference for antibody was 8.9 times bigger than for QLE (P=2.5×10^−5), by ANOVA on log-transformed data. Results are an average of 6 images collected independently.\nOn confocal microscopy, it was shown that ALL*-Cy5.5 binds to the surface (arrows) of cells with different levels of GPC3 expression. […] GPC3 is highly overexpressed in Hep3B cell cytosol and membrane while moderately expressed in HepG2 cells. No GPC3 expression is observed in SK-Hep1 cells. Tubulin serves as loading control for either cytosol or membrane fractions loaded."}, "[1]": {"test": "Histology of vital organs post-peptide administration (acute toxicity)", "format": "in vivo, mice", "conditions": "2 hours post-injection; brain, heart, lung, liver, spleen, kidney, stomach, intestine, cecum, colon", "description": "Vital organs were harvested post peptide administration in mice to evaluate acute toxicity of peptide probe with histology observation. Mice bearing human HCC xenograft tumors were sacrificed 2 hours post-injection of ALL*-Cy5.5."}}, "note": "Ends that are not written are not given here.", "data": [{"sequence": "ALLANHEELFQT (SEQ ID NO: 1) peptide labeled with Cy5.5 via a GGGSK linker on the C-terminus (ALLANHEELFQTGGGSK-{Cy5.5}) [ALL*-Cy5.5]", "values": [{"measurement": "cell surface staining of xenograft sections", "setting": "Hep3B xenograft tumors; Hep3B xenograft sections, compared with QLE*-Cy5.5", "result": "increased cell surface staining"}, {"measurement": "intensity from peptide binding, HCC vs normal", "setting": "Hep3B xenograft tumors; n=26", "result": 2.22, "unit": "fold"}, {"measurement": "staining of normal mouse liver", "setting": "Hep3B xenograft tumors; normal mouse liver sections", "result": "Minimal staining"}, {"measurement": "fluorescence intensity from binding to cell surface", "setting": "SK-Hep1 cells", "result": "minimal signal"}, {"measurement": "acute peptide toxicity on histology of vital organs", "setting": "[1]", "result": "No signs of acute peptide toxicity"}]}]}
